Test results: PubChem BioAssay AID1963977 (Molecular Pharmacology Branch, DTP, NCI, 2024)

Test system: 624824-186-R-J3-PDC multicell spheroids, viability
Assay: Anticancer human tumor 624824-186-R-J3-PDC patient-derived colon adenocarcinoma cell line growth inhibition [PI3K]
Conditions: for IC50: curve of first compound; for viability, T/C: stronger effect = lower value
Text: Combinatorial screen of targeted agents with the PI3K inhibitors inavolisib, alpelisib, duvelisib, and copanlisib in multi-cell type tumor spheroids
A high-throughput screen of multi-cell type tumor spheroids was designed to identify active combinations of targeted small molecules and PI3K pathway inhibitors. Complex spheroids include a stromal component modeled by human endothelial cells (HUVEC) and fibroblasts modeled by human mesenchymal stem cells (MSCs). The concentration ranges selected for each drug and investigational agent were based upon clinically achievable concentrations if the clinical Cmax of the agent was known.
Compounds. The drugs and investigational agents: inavolisib (NSC800729), alpelisib (NSC765974), duvelisib (NSC772469), copanlisib (NSC816437), ipatasertib (NSC767898), afuresertib (NSC778305), talazoparib (NSC767125), sapanisertib (NSC764658), selumetinib (NSC741078), tovorafenib (DAY101, NSC766906), vemurafenib (NSC761431), ravoxertinib (NSC781343), sotorasib (NSC818433), MRTX1133 (NSC 836407), abemaciclib (NSC 768073), palbociclib (NSC758247), venetoclax (NSC 766270), SY5609 (NSC837396), enzalutamide (NSC755605), and darolutamide (NSC825331), were obtained from the National Cancer Institute (NCI) Developmental Therapeutics Program Chemical Repository. The FDA-approved anticancer drug set is available from the NCI Developmental Therapeutics Program. […] The stock solutions were prepared in dimethyl sulfoxide (DMSO, Sigma-Aldrich, St. Louis, MO, cat. D2650) at 800-fold the tested concentration and stored at -70 degrees C prior to their use. All drugs and investigational agents were tested over a range starting from a high concentration at or near the clinical Cmax and decreasing in half-log increments. If the clinical Cmax for an agent had not been determined, the highest concentration tested was 10 microM.
Cell Culture. All cells were maintained in an incubator at 37 degrees C and 5% CO2 with 95% humidity. The PDC lines were cultured according to standard operating procedures established by the NCI PDMR (https://pdmr.cancer.gov/sops/default.htm). All PDCs were thawed and cultured in Matrigel-coated flasks prepared with a working solution of 1X Ham's F-12 nutrient mix, without supplementation (Invitrogen, Waltham, MA, cat. 11765054), 100 U/mL penicillin-streptomycin (Invitrogen, cat. 15140122), and 2.5% Matrigel (Corning Inc., Corning, NY, cat. 354248) for the first three passages. The 354836-022-R-J1-PDC, 475296-252-R-J1-PDC, and 997726-040-R-J2-PDC lines were cultured in 6A media, which includes advanced DMEM/F-12 (Thermo Fisher Scientific, cat. 12634028), 10 mM HEPES (Thermo Fisher Scientific, cat. 15630080), 1X GlutaMAX supplement (Thermo Fisher Scientific, cat. 35050061), 0.1 mg/mL primocin (InvivoGen, San Diego, CA, cat. ant-pm-2), 10% defined fetal bovine serum, heat inactivated (HyClone Laboratories Inc., Logan, UT, cat. SH30070.03HI), 50% L-WRN conditioned media (ATCC, cat. CRL-3276), 1.25 mM N-Acetyl-L-cysteine (Sigma-Aldrich, cat. A9165), 10 mM nicotinamide (Sigma-Aldrich, cat. N0636), 1X B-27 supplement (Thermo Fisher Scientific, cat. 17504044), 1X N-2 supplement (Thermo Fisher Scientific, cat. 17502048), and 10 microM Y-27632 dihydrochloride (Tocris Bioscience, Bristol, United Kingdom, cat. 1254). The 624824-186-R-J2-PDC line was cultured in 6C/Colon 1B media, which includes all 6A media components plus 50 ng/mL human EGF recombinant protein (Thermo Fisher Scientific, cat. PHG0311). […]
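Also: spheroids exposed to agents for seven days before luminescence read.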
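For viability, T/C in this document: luminescent signal used as a stand-in for spheroid viability; percent viability relative to DMSO vehicle control wells taken as 100%.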

- IC50 (second compound 0.00316 µM): > 100 nM
- IC50 (second compound 0.01 µM): > 100 nM
- IC50 (second compound 0.0316 µM): 91.7 nM
- IC50 (second compound 0.1 µM): 81.1 nM
- IC50 (second compound 0.316 µM): 71 nM
- IC50 (second compound 1 µM): 42.2 nM
Structure (SMILES): CC(C)n1nc(-c2ccc3oc(N)nc3c2)c2c(N)ncnc21 + CC(Nc1ccc2c(c1)OCCn1cc(N3C(=O)OCC3C(F)F)nc1-2)C(N)=O
- viability, T/C (second compound 0.00316 µM, first compound 0.000316 µM): 99.7%
- viability, T/C (second compound 0.00316 µM, first compound 0.001 µM): 96.8%
- viability, T/C (second compound 0.00316 µM, first compound 0.00316 µM): 102%
- viability, T/C (second compound 0.00316 µM, first compound 0.01 µM): 101%
- viability, T/C (second compound 0.00316 µM, first compound 0.0316 µM): 96.2%
- viability, T/C (second compound 0.00316 µM, first compound 0.1 µM): 53.6%
- viability, T/C (second compound 0.01 µM, first compound 0.000316 µM): 97.3%
- viability, T/C (second compound 0.01 µM, first compound 0.001 µM): 102%
- viability, T/C (second compound 0.01 µM, first compound 0.00316 µM): 103%
- viability, T/C (second compound 0.01 µM, first compound 0.01 µM): 105%
- viability, T/C (second compound 0.01 µM, first compound 0.0316 µM): 93.6%
- viability, T/C (second compound 0.01 µM, first compound 0.1 µM): 59.8%
- viability, T/C (second compound 0.0316 µM, first compound 0.000316 µM): 105%
- viability, T/C (second compound 0.0316 µM, first compound 0.001 µM): 106%
- viability, T/C (second compound 0.0316 µM, first compound 0.00316 µM): 98.2%
- viability, T/C (second compound 0.0316 µM, first compound 0.01 µM): 99.9%
- viability, T/C (second compound 0.0316 µM, first compound 0.0316 µM): 93.2%
- viability, T/C (second compound 0.0316 µM, first compound 0.1 µM): 46.5%
- viability, T/C (second compound 0.1 µM, first compound 0.000316 µM): 99.2%
- viability, T/C (second compound 0.1 µM, first compound 0.001 µM): 106%
- viability, T/C (second compound 0.1 µM, first compound 0.00316 µM): 101%
- viability, T/C (second compound 0.1 µM, first compound 0.01 µM): 96.3%
- viability, T/C (second compound 0.1 µM, first compound 0.0316 µM): 84.5%
- viability, T/C (second compound 0.1 µM, first compound 0.1 µM): 42.3%
- viability, T/C (second compound 0.316 µM, first compound 0.000316 µM): 92.4%
- viability, T/C (second compound 0.316 µM, first compound 0.001 µM): 92.7%
- viability, T/C (second compound 0.316 µM, first compound 0.00316 µM): 90.7%
- viability, T/C (second compound 0.316 µM, first compound 0.01 µM): 84.9%
- viability, T/C (second compound 0.316 µM, first compound 0.0316 µM): 83%
- viability, T/C (second compound 0.316 µM, first compound 0.1 µM): 36.2%
- viability, T/C (second compound 1 µM, first compound 0.000316 µM): 85.8%
- viability, T/C (second compound 1 µM, first compound 0.001 µM): 86.9%
- viability, T/C (second compound 1 µM, first compound 0.00316 µM): 86.5%
- viability, T/C (second compound 1 µM, first compound 0.01 µM): 70.5%
- viability, T/C (second compound 1 µM, first compound 0.0316 µM): 59.5%
- viability, T/C (second compound 1 µM, first compound 0.1 µM): 26.2%
